Consider one compound from patent US8871680B2, “Herbicidal compositions comprising 4-amino-3-chloro-5-fluoro-6-(4-chloro-2-fluoro-3-methoxyphenyl) pyridine-2-carboxylic acid or a derivative thereof and a di-methoxy-pyrimidine and derivatives thereof” (Dow AgroSciences LLC, priority 2012, dated 2014).

Assay [1] concerns LEFCH. The experiment in a line: Postemergence foliar-applied weed control, direct seeded rice (greenhouse). It counts as in vivo, Leptochloa chinensis (L.) Nees. The text has this: (§1) Seeds or nutlets of the desired test plant species were planted in a soil matrix prepared by mixing a loam or sandy loam soil (e.g., 28.6 percent silt, 18.8 percent clay, and 52.6 percent sand, with a pH of about 5.8 and an organic matter content of about 1.8 percent) and calcareous grit in an 80 to 20 ratio. The soil matrix was contained in plastic pots with a volume of 1 quart and a surface area of 83.6 square centimeters (cm^2). When required to ensure good germination and healthy plants, a fungicide treatment and/or other chemical or physical treatment was applied. The plants were grown for 8-22 days in a greenhouse with an approximate 14 hr photoperiod which was maintained at about 29° C. during the day and 26° C. during the night. Nutrients (Peters Excel® 15-5-15 5-Ca 2-Mg and iron chelate) were applied in the irrigation solution as needed and water was added on a regular basis. Supplemental lighting was provided with overhead metal halide 1000-Watt lamps as necessary. The plants were employed for testing when they reached the first through fourth true leaf stage.
(§2) Treatments consisted of the acid or esters of 4-amino-3-chloro-5-fluoro-6-(4-chloro-2-fluoro-3-methoxy-phenyl)pyridine-2-carboxylic acid (Compound A), each formulated as an SC (suspension concentrate), and various herbicidal components alone and in combination. Forms of compound A were applied on an acid equivalent basis.
(§3) Other herbicidal components were applied on an active ingredient basis and included the dimethoxy-pyrimidine acid acetolactate synthase (ALS)-inhibiting herbicides bispyribac-sodium formulated as Regiment® 80WP, pyribenzoxim (technical grade material), pyriminobac-methyl formulated as Hie-Clean® 1.2% GR dissolved in water, and pyriftalid (technical grade material).
(§4) Treatment requirements were calculated based upon the rates being tested, the concentration of active ingredient or acid equivalent in the formulation, and a 12 mL application volume at a rate of 187 L/ha.
(§5) For treatments comprised of formulated compounds, measured amounts of compounds were placed individually in 25 mL glass vials and diluted in a volume of 1.25% (v/v) Agri-Dex® crop oil concentrated to obtain 12× stock solutions. […] Application solutions were prepared by adding an appropriate amount of each stock solution (e.g., 1 mL) and diluted to the appropriate final concentrations with the addition of 10 mL of an aqueous mixture of 1.25% (v/v) crop oil concentrate so that the final spray solutions contained 1.25+/−0.005% (v/v) crop oil concentrate.
(§6) For treatments comprised of technical compounds, weighed amounts can be placed individually in 25 mL glass vials and dissolved in a volume of 97:3 v/v acetone/DMSO to obtain 12× stock solutions. […] Application solutions can be prepared by adding an appropriate amount of each stock solution (e.g., 1 mL) and diluted to the appropriate final concentrations with the addition of 10 mL of an aqueous mixture of 1.5% (v/v) crop oil concentrate so that the final spray solutions contain 1.25% (v/v) crop oil concentrate. When technical materials are used, the concentrated stock solutions can be added to the spray solutions so that the final acetone and DMSO concentrations of the application solutions are 16.2% and 0.5%, respectively.
(§7) For treatments comprised of formulated and technical compounds, weighed amounts of the technical materials were placed individually in 25 mL glass vials and dissolved in a volume of 97:3 v/v acetone/DMSO to obtain 12× stock solutions, and measured amounts of the formulated compounds were placed individually in 25 mL glass vials and diluted in a volume of 1.5% (v/v) crop oil concentrate or water to obtain 12× stock solutions. […]

Another assay concerns DIGSA. Described as above. The class given is in vivo, Digitaria sanguinalis (L.) Scop.
Description: as §1, §2, §3, §4, §5
For treatments comprised of technical compounds, weighed amounts can be placed individually in 25 mL glass vials and dissolved in a volume of 97:3 v/v acetone/DMSO to obtain 12× stock solutions. […] Application solutions can be prepared by adding an appropriate amount of each stock solution (e.g., 1 mL) and diluted to the appropriate final concentrations with the addition of 10 mL of an aqueous mixture of 1.5% (v/v) crop oil concentrate so that the final spray solutions contain 1.25% (v/v) crop oil concentrate. […]
as §7

The next assay relates to IPOHE. The assay is described as above. It counts as in vivo, Ipomoea hederacea Jacq.
Description: as §1, §2, §3, §4, §5, §6, §7

For assay [2], the system named is LEFCH. The experiment in a line: In-water applied weed control, transplanted paddy rice (greenhouse). It counts as in vivo, Leptochloa chinensis (L.) Nees. The conditions noted are these: 45 gai/ha. As for the experimental part:
(§8) Weed seeds or nutlets of the desired test plant species were planted in puddled soil (mud) prepared by mixing a shredded, non-sterilized mineral soil (50.5 percent silt, 25.5 percent clay, and 24 percent sand, with a pH of about 7.6 and an organic matter content of about 2.9 percent) and water at a 1:1 volumetric ratio. The prepared mud was dispensed in 365 mL aliquots into 16-ounce (oz.) non-perforated plastic pots with a surface area of 86.59 square centimeters (cm^2) leaving a headspace of 3 centimeters (cm) in each pot. Mud was allowed to dry overnight prior to planting or transplanting. Rice seeds were planted in Sun Gro MetroMix® 306 planting mixture, which typically has a pH of 6.0 to 6.8 and an organic matter content of about 30 percent, in plastic plug trays. Seedlings at the second or third leaf stage of growth were transplanted into 860 mL of mud contained in 32-oz. non-perforated plastic pots with a surface area of 86.59 cm^2 4 days prior to herbicide application. The paddy was created by filling the headspace of the pots with 2.5 to 3 cm of water. When required to ensure good germination and healthy plants, a fungicide treatment and/or other chemical or physical treatment was applied. The plants were grown for 4-22 days in a greenhouse with an approximate 14 hr photoperiod which was maintained at about 29′C during the day and 26° C. during the night. Nutrients were added as Osmocote® (19:6:12, N:P:K+minor nutrients) at 2 g per 16-oz. pot and 4 g per 32-oz. pot. Water was added on a regular basis to maintain the paddy flood, and supplemental lighting was provided with overhead metal halide 1000-Watt lamps as necessary. The plants were employed for testing when they reached the first through fourth true leaf stage.
(§9) Treatments consisted of the acid or esters of 4-amino-3-chloro-5-fluoro-6-(4-chloro-2-fluoro-3-methoxy-phenyl)pyridine-2-carboxylic acid (compound A) each formulated as an SC and various herbicidal components alone and in combination. Forms of compound A were applied on an acid equivalent basis.
(§10) Other herbicidal components were applied on an active ingredient basis and included the dimethoxy-pyrimidine acid acetolactate synthase (ALS)-inhibiting herbicides bispyribac-sodium formulated as Regiment® 80 WP, pyriminobac-methyl formulated as Hie Clean®, and pyriftalid (technical grade material).
(§11) Treatment requirements for each compound or herbicidal component were calculated based upon the rates being tested, the concentration of active ingredient or acid equivalent in the formulation, an application volume of 2 mL per component per pot, and an application area of 86.59 cm^2 per pot.
(§12) For formulated compounds, a measured amount was placed in an individual 100 or 200 mL glass vial and was dissolved in a volume of 1.25% (v/v) Agri-Dex® crop oil concentrate to obtain application solutions.
(§13) For technical grade compounds, a weighed amount was placed in an individual 100 to 200 mL glass vial and was dissolved in a volume of acetone to obtain concentrated stock solutions. […] The concentrated stock solutions obtained were diluted with an equivalent volume of an aqueous mixture containing 2.5% (v/v) crop oil concentrate so that the final application solutions contained 1.25% (v/v) crop oil concentrate.
(§14) Applications were made by injecting with a pipetter appropriate amounts of the application solutions, individually and sequentially, into the aqueous layer of the paddy.
Control plants were treated in the same manner with the solvent blank. […]

The next assay deals with SCPMA. Described as above. It counts as in vivo, Bolboschoenus maritimus (L.) Palla. The conditions noted are these: for Visual Weed Control (%)-20 DAA SCPMA Obs: 90 gai/ha. As to the method:
as §8, §9, §10, §11, §12, §13, §14
(§15) Control plants were treated in the same manner with the solvent blank. Applications were made so that all treated plant material received the same concentrations of acetone and crop oil concentrate.
(§16) The treated plants and control plants were placed in a greenhouse as described above and water was added as needed to maintain a paddy flood. […]

A further assay relates to CYPRO. The assay is described as above. The class given is in vivo, Cyperus rotundus L. To be noted: 22.5 gai/ha. As for the experimental part: as §8, §9, §10, §11, §12, §13, §14, §15, §16
In a further assay the test system is ECHCO. Described as above. To be noted: 22.5 gai/ha. The class given is in vivo, Echinochloa colona (L.) Link. As for the experimental part:
as §8, with “Water was added on a regular basis to maintain the paddy flood, and supplemental lighting was provided with overhead metal halide 1000-Watt lamps as necessary. The plants were employed for testing when they reached the first through fourth true leaf stage.” left out
as §11
For formulated compounds, a measured amount was placed in an individual 100 or 200 mL glass vial and was dissolved in a volume of 1.25% (v/v) Agri-Dex® crop oil concentrate to obtain application solutions. […]

Another assay deals with FIMMI. The assay is described as above. It counts as in vivo, Fimbristylis miliacea (L.) Vahl. As to the method: as §8, §9, §10, §11, §12, §13, §14, §15, §16

Each structure is given as a SMILES string.

On to `CO/N=C(\C)c1cccc(Oc2nc(OC)cc(OC)n2)c1C(=O)OC` [Pyriminobac-methyl, methyl 2-[(4,6-dimethoxy-2-pyrimidinyl)oxy]-6-[1-(methoxyimino)ethyl]benzoate, reference compound], for which the “Visual Weed Control (%)-24 DAA LEFCH Obs” value in the assay on LEFCH [1] (11.25 gai/ha) and in the assay on LEFCH [1] (22.5 gai/ha) was 0% each time. Moreover, the “Visual Weed Control (%)-24 DAA DIGSA Obs” value in the assay on DIGSA (11.25 gai/ha) and with DIGSA (22.5 gai/ha) was 0% throughout. Also, the “Visual Weed Control (%)-24 DAA IPOHE Obs” value in the assay with IPOHE (11.25 gai/ha) stood at 10%; with IPOHE (11.25 gai/ha, Table 4), 10%; with IPOHE (22.5 gai/ha) it was 10%; with IPOHE (22.5 gai/ha, Table 4), 10%; in the assay with IPOHE (90 gai/ha, second part of Table 3), 20%. Besides, in the assay on IPOHE (90 gai/ha), the “Visual Weed Control (%)-21 DAA IPOHE Obs” value came out at 20%. The “Visual Weed Control (%)-21 DAA LEFCH Obs” value in the assay with LEFCH [2] is on record as 80%. The “Visual Weed Control (%)-21 DAA SCPMA Obs” value with SCPMA (22.5 gai/ha, Table 10) is on record as 0%; in the assay with SCPMA (22.5 gai/ha, Table 11), 0%; with SCPMA (45 gai/ha, Table 10) it was 0%; in the assay on SCPMA (45 gai/ha, Table 11), 0%. In addition, the “Visual Weed Control (%)-20 DAA SCPMA Obs” value in the assay on SCPMA (Table 10) and in the assay with SCPMA (Table 11) was 43% in each case. Also, the “Visual Weed Control (%)-21 DAA CYPRO Obs” value in the assay with CYPRO worked out at 0%. In the assay on ECHCO, the “Visual Weed Control (%)-21 DAA ECHCO Obs” value is on record as 40%. The “Visual Weed Control (%)-21 DAA FIMMI Obs” value in the assay on FIMMI (22.5 gai/ha) and in the assay with FIMMI (45 gai/ha) was 0% each time.
